This passage reports Ki results from patent US20220324803A1 (Teon Therapeutics, Inc., priority 2019, published 2022).

T1 sequence (P35408 whole entry): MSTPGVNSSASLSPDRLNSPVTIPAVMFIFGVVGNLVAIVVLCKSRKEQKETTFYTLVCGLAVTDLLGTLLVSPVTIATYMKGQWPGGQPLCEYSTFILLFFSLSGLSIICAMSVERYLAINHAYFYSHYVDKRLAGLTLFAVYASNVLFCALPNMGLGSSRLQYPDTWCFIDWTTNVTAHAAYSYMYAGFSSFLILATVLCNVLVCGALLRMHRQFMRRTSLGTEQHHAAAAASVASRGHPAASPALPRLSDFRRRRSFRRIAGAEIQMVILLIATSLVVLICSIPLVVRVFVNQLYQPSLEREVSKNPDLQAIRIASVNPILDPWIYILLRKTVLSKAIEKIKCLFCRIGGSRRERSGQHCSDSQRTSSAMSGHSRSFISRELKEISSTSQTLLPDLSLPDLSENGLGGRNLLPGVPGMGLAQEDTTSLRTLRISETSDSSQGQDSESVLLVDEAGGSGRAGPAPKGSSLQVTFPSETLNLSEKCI

This experiment has as its target T1, human Prostanoid EP4 Receptor (EP4) (Homo sapiens, UniProt P35408).
T1 construct: expressed in transfected cells; host or cells: HEK293 (G418 selection); membranes prepared by differential centrifugation
Nature of the experiment: Prostanoid EP4 binding assay (3H-prostaglandin E2 displacement, cell membranes). The note with it: HEK293 cell membranes with human EP4, 3H-prostaglandin E2, 24° C. As to the method:
HEK293 cells transfected with human Prostanoid EP4 Receptor (EP4) are maintained in DMEM supplemented with L-Glutamine, 10% FBS and 300 μg/ml G418. Cells are harvested and membranes prepared by differential centrifugation, following lysis of the cells in the presence of protease inhibitors, for use in the receptor binding assay. EP4 binding assay is performed in 50 mM HEPES pH7.4, 5 mM MgCl2, 1 mM CaCl2) and 0.2% BSA. Testing compounds are diluted with DMSO to make 8-point 4-fold serial dilution. Cell membrane homogenates are incubated at 24° C. with ^3H-prostaglandin E2 in the absence or presence of the testing compound in assay buffer. Nonspecific binding (Low control: LC) and total binding (High control: HC) are determined in the presence or absence of saturated cold ligand Prostaglandin E2 (PGE2). Specific binding is calculated by subtracting nonspecific binding from total binding. When binding assays are completed, the reaction mixture is filtered rapidly under vacuum through glass fiber filters (GF/C, Packard) presoaked with 0.5% BSA for at least 0.5 hour at room temperature and then washed for 4 times with cold wash buffer (50 mM HEPES pH7.4, 500 mM NaCl, 0.1% BSA) using a 96-sample Perkin Elmer Filtermate Harvester (Unifilter, Packard). The filters are dried for 1 hour at 50 degrees then counted for radioactivity in a scintillation counter using Perkin Elmer Microscint 20 cocktail. ^3H trapped on filter is counted using Perkin Elmer MicroBeta2 Reader. Inhibition is calculated using following equation: % Inhibition=(1−(Assay well−Average_LC)/(Average_HC−Average_LC))×100%. The results are expressed as a percent inhibition of the control radioligand specific binding. Data are analyzed and IC50 is calculated using GraphPad Prism 5 and the model “log(inhibitor) vs. response—Variable slope”. The binding affinity of the compounds is determined by using the Cheng and Prusoff equation Ki=IC50/(1+[radioligand]/Kd).
As to `O=C(O)c1ccc(C2(NC(=O)c3cnn4cccc(Cc5ccc(C(F)(F)F)cc5)c34)CC2)cc1` [Compound 26, 4-[1-[[4-[[4-(trifluoromethyl)phenyl]methyl]pyrazolo[1,5-a]pyridine-3-carbonyl]amino]cyclopropyl]benzoic acid], the Ki – broadly, a measure of affinity in units of concentration, obtained from inhibition or displacement – is below 100 nM.

As for `O=C(O)CC1CCC(NC(=O)c2cnn3cccc(Cc4ccc(C(F)(F)F)cc4)c23)C1` (stereo not shown) [Compound 37, 2-[3-[[4-[[4-(trifluoromethyl)phenyl]methyl]pyrazolo[1,5-a]pyridine-3-carbonyl]amino]cyclopentyl]acetic acid], the Ki is below 100 nM.

As to `CCn1cc(C(=O)N[C@H]2CC[C@H](CC(=O)O)CC2)c2c(Cc3ccc(C(F)(F)F)cc3)cccc21` [Compound 56, 2-[(1r,4r)-4-[[1-ethyl-4-[[4-(trifluoromethyl)phenyl]methyl]indole-3-carbonyl]amino]cyclohexyl]acetic acid], the Ki is below 100 nM.

Consider `O=C(O)CC12CC(NC(=O)c3cn(CCF)c4cccc(Cc5ccc(C(F)(F)F)cc5)c34)(C1)C2` [Compound 52, 2-[3-[[1-(2-fluoroethyl)-4-[[4-(trifluoromethyl)phenyl]methyl]-indole-3-carbonyl]amino]-1-bicyclo[1.1.1.1]pentanyl]acetic acid], for which the Ki was below 100 nM.

As to `O=C(N[C@H]1CC[C@@H](C(=O)O)C1)c1cnn2cccc(Cc3ccc(C(F)(F)F)cc3)c12` [Compound 39, (1R,3S)-3-[[4-[[4-(trifluoromethyl)phenyl]methyl]pyrazolo[1,5-a]pyridine-3-carbonyl]amino]cyclopentanecarboxylic acid], the Ki was below 100 nM.

Compound `CCn1nc(C(=O)N[C@H]2CC3(C2)C[C@H](C(=O)O)C3)c2c(Cc3ccc(C(F)(F)F)cc3)cccc21` (single isomer, unassigned) [Compound 11B, trans-2-[[1-ethyl-4-[[4-(trifluoromethyl)phenyl]methyl]indazole-3-carbonyl]amino]spiro[3.3]heptane-6-carboxylic acid] registered a Ki below 100 nM.

The compound `O=C(O)CC12CC(NC(=O)c3cn(CCF)c4nccc(Cc5ccc(C(F)(F)F)cc5)c34)(C1)C2` [Compound 54, 2-[3-[[1-(2-fluoroethyl)-4-[[4-(trifluoromethyl)phenyl]methyl]-pyrrolo[2,3-b]pyridine-3-carbonyl]amino]-1-bicyclo[1.1.1]pentanyl]acetic acid] yielded a Ki below 100 nM.

`O=C(N[C@H]1CC[C@H](C(=O)O)CC1)c1cnn2cccc(Cc3ccc(C(F)(F)F)cc3)c12` [Compound 33, (1r,4r)-4-[[4-[[4-(trifluoromethyl)phenyl]methyl]pyrazolo[1,5-a]pyridine-3-carbonyl]amino]cyclohexanecarboxylic acid] registered an inhibition constant Ki of 100 to 499 nM.

Compound `CCn1nc(C(=O)NC23CC(CC(=O)O)(C2)C3)c2c(Cc3ccc(C(F)(F)F)cc3)cccc21` [Compound 19, 2-[3-[[1-ethyl-4-[[4-(trifluoromethyl)phenyl]methyl]indazole-3-carbonyl]amino]-1-bicyclo[1.1.1]pentanyl]acetic acid] returned a Ki of 100 to 499 nM.

The compound `O=C(NC12CCC(C(=O)O)(CC1)CC2)c1cnn2cccc(Cc3ccc(C(F)(F)F)cc3)c12` [Compound 36, 4-[[4-[[4-(trifluoromethyl)phenyl]methyl]pyrazolo[1,5-a]pyridine-3-carbonyl]amino]bicyclo[2.2.2]octane-1-carboxylic acid] yielded a Ki of 100 to 499 nM.

For `O=C(NCC12CCC(C(=O)O)(CC1)C2)c1cnn2cccc(Cc3ccc(C(F)(F)F)cc3)c12` [Compound 50, 4-[[[4-[[4-(trifluoromethyl)phenyl]methyl]pyrazolo[1,5-a]pyridine-3-carbonyl]amino]methyl]norbornane-1-carboxylic acid], the Ki was above 500 nM.

`CC(C)n1nc(C(=O)N[C@H]2CC3(C2)C[C@H](C(=O)O)C3)c2c(Cc3ccc(C(F)(F)F)cc3)cccc21` (stereo partly drawn) [Compound 21, trans-2-[[1-isopropyl-4-[[4-(trifluoromethyl)phenyl]methyl]indazole-3-carbonyl]amino]spiro[3.3]heptane-6-carboxylic acid]: the Ki is below 100 nM.

Compound `O=C(NC[C@H]1CC[C@H](C(=O)O)CC1)c1cn(CCF)c2nccc(Cc3ccc(C(F)(F)F)cc3)c12` [Compound 58, (1r,4r)-4-[[[1-(2-fluoroethyl)-4-[[4-(trifluoromethyl)-phenyl]methyl]-pyrrolo[2,3-b]pyridine-3-carbonyl]amino]methyl]cyclohexanecarboxylic acid] registered a Ki below 100 nM.

As to `O=C(O)CC12CCC(NC(=O)c3cnn4cccc(Cc5ccc(C(F)(F)F)cc5)c34)(CC1)CC2` [Compound 35, 2-(4-(4-(4-(trifluoromethyl)benzyl)pyrazolo[1,5-a]pyridine-3-carboxamido)bicyclo[2.2.2]octan-1-yl)acetic acid], the Ki fell in the range of 100 to 499 nM.

`O=C(O)Cc1ccc(NC(=O)c2cnn3cccc(Cc4ccc(C(F)(F)F)cc4)c23)cc1` [Compound 28, 2-[4-[[4-[[4-(trifluoromethyl)phenyl]methyl]pyrazolo[1,5-a]pyridine-3-carbonyl]amino]phenyl]acetic acid] displayed a Ki of 100 to 499 nM.

In turn, `CCn1nc(C(=O)N[C@H]2CC3(C2)C[C@H](C(=O)O)C3)c2c(Cc3ccc(C(F)(F)F)cc3)cccc21` (single isomer, unassigned) [Compound 11A, cis-2-[[1-ethyl-4-[[4-(trifluoromethyl)phenyl]methyl]indazole-3-carbonyl]amino]spiro[3.3]heptane-6-carboxylic acid] returned a Ki of 100 to 499 nM.

In turn, `CCn1cc(C(=O)N[C@H]2CC3(C2)C[C@H](C(=O)O)C3)c2c(Cc3ccc(C(F)(F)F)cc3)cccc21` (stereo partly drawn) [Compound 41, trans-2-[[1-ethyl-4-[[4-(trifluoromethyl)phenyl]methyl]indole-3-carbonyl]amino]spiro[3.3]heptane-6-carboxylic acid] registered an inhibition constant Ki below 100 nM.

In turn, `O=C(NC1CC2(C1)CC(C(=O)O)C2)c1cnn2cccc(Cc3cc4ccccc4cn3)c12` (single isomer, unassigned) [Compound 13B, trans-2-[[4-(3-isoquinolylmethyl)pyrazolo[1,5-a]pyridine-3-carbonyl]amino]spiro[3.3]heptane-6-carboxylic acid] returned a Ki below 100 nM.

Compound `CC(C)n1nc(C(=O)NC23CC(CC(=O)O)(C2)C3)c2c(Cc3ccc(C(F)(F)F)cc3)cccc21` [Compound 22, 2-[3-[[1-isopropyl-4-[[4-(trifluoromethyl)phenyl]methyl]indazole-3-carbonyl]amino]-1-bicyclo[1.1.1]pentanyl]acetic acid] returned a Ki above 500 nM.

`O=C(N[C@H]1CC2(C1)C[C@H](C(=O)O)C2)c1ncn2cccc(Cc3ccc(C(F)(F)F)cc3)c12` (single isomer, unassigned) [Compound 6A, cis-2-[[8-[[4-(trifluoromethyl)phenyl]methyl]imidazo[1,5-a]pyridine-1-carbonyl]amino]spiro[3.3]heptane-6-carboxylic acid] registered a Ki above 500 nM.

`CCn1cc(C(=O)NC[C@H]2CC[C@H](C(=O)O)CC2)c2c(Cc3ccc(C(F)(F)F)cc3)cccc21` [Compound 55, (1r,4r)-4-[[[1-ethyl-4-[[4-(trifluoromethyl)phenyl]methyl]indole-3-carbonyl]amino]methyl]cyclohexanecarboxylic acid] displayed a Ki below 100 nM.

Regarding `CCn1cc(C(=O)NC2CC3(C2)CC(C(=O)O)C3)c2c(Cc3ccc(C(F)(F)F)cc3)ccnc21` (stereo not drawn) [Compound 45, trans-2-[[1-ethyl-4-[[4-(trifluoromethyl)phenyl]methyl]-pyrrolo[2,3-b]pyridine-3-carbonyl]amino]spiro[3.3]heptane-6-carboxylic acid], the Ki is below 100 nM.

In the case of `CC(C)n1nc(C(=O)N[C@@H](C)c2ccc(C(=O)O)cc2)c2c(Cc3ccc(C(F)(F)F)cc3)cccc21` [Compound 20, 4-[(1S)-1-[[1-isopropyl-4-[[4-(trifluoromethyl)phenyl]methyl]indazole-3-carbonyl]amino]ethyl]benzoic acid], the Ki is below 100 nM.

Compound `CC(C(=O)O)c1ccc(NC(=O)c2cnn3cccc(Cc4ccc(C(F)(F)F)cc4)c23)cc1` (stereo not shown) [Compound 49, 2-[4-[[4-[[4-(trifluoromethyl)phenyl]methyl]pyrazolo[1,5-a]pyridine-3-carbonyl]amino]phenyl]propanoic acid] came in with a Ki of 100 to 499 nM.

Consider `CC(C)Cn1nc2cccc(Cc3ccc(C(F)(F)F)cc3)c2c1C(=O)N[C@@H](C)c1ccc(C(=O)O)cc1` [Compound 30, 4-[(1S)-1-[[2-isobutyl-4-[[4-(trifluoromethyl)phenyl]methyl]indazole-3-carbonyl]amino]ethyl]benzoic acid], for which the Ki lay in the range of 100 to 499 nM.
